# Test results reported in the METLIN SMRT retention time set (Domingo-Almenara et al. 2019).
# Assay: gradient 5% acetonitrile 3 min, to 50% in 2 min, to 85% in 15 min, held 3 min, 100 µL/min
# Details: column: Zorbax Extend-C18 2.1 x 50 mm; eluents: water / acetonitrile, 0.1% formic acid
# Procedure, shortened: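 The mobile phases were water and acetonitrile, each with 0.1% formic acid, pumped at 100 μL/min through a Zorbax Extend-C18 column (2.1 × 50 mm, 1.8 μm). Pure standards were injected as mixtures of ~100 molecules and detected by a quadrupole time-of-flight mass spectrometer in positive and negative ionization mode. Retention time came from computationally picked adduct peaks, each inspected by hand.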
row,Structure (SMILES),RP-LC retention time [s]
1,CN1C(=O)c2cc(C(=O)N3CCOCC3)nn2CC1(C)C(=O)NCc1ccccc1 (centres undefined),632
2,COc1ccc(NC(=O)C2CCN(C(=O)C3Sc4ccccc4NC3=O)CC2)cc1OC (centres undefined),692
3,C=CCNC(=O)C1CCCN(C(=O)Nc2ccc(NC(=O)Nc3ccc(CC)cc3)cc2)C1 (centres undefined),780
4,CC(=O)Nc1ccc(OCC(=O)NCc2cc(F)cc(F)c2)nc1,672
5,COCCN1C(=O)c2ccccc2C(C(=O)NCCCc2ccccc2)C12CCCC2 (centres undefined),944
6,CN(CC(=O)N1CCN(c2cccc(Cl)c2)CC1)S(=O)(=O)c1ccc2c(c1)CCCC(=O)N2,822
7,O=S(=O)(c1ccc(-c2nnc(C3CC3)o2)o1)N1CCCCCC1,898
8,CCOC(=O)c1[nH]c(C)c(C(=O)N(Cc2ccccc2)C(C)C)c1C,860
9,O=C(NC1CC1)[C@@H]1C[C@H](Oc2cccnc2)CN1C(=O)c1ccsc1,630
10,COc1ccc(NC(=O)C2CCCN(c3nnc4ccc(Cl)cn34)C2)c(OC)c1 (centres undefined),701
11,CC(C)Cn1cc(S(=O)(=O)Nc2cccc(F)c2)c2cccnc21,912
12,Fc1cccc(N2CC3(CCN(Cc4ccncc4F)CC3)C2c2ccccc2)c1 (centres undefined),650
13,CCn1ccc2oc(C)c(C(=O)NCc3ccc(C(C)C)cc3)c2c1=O,1130
14,COc1ccc(-c2noc(-c3nn(-c4cccc(OC)c4)ccc3=O)n2)cc1,876
15,Cc1cc(N2CCCCC2)nc(N2CCN(C(=O)C3CCCC3)CC2)n1,713
16,CNC(=O)C1CN(C(=O)Nc2cc(OC)cc(OC)c2)CC12CCCC2 (centres undefined),683
17,O=C(Nc1ccc(F)cc1)N1C[C@H]2C[C@H](C1)[C@H]1CCCC(=O)N1C2,640
18,Cc1cc(C(=O)N2CCC(c3noc(-c4cnccn4)n3)C2)nn1C (centres undefined),641
19,Cc1ccc(NC(=O)Cn2nc3c(N4CCCCCC4)nccn3c2=O)cc1F,739
20,CC(C)CCNC(=O)CN1c2ccc(F)cc2-c2ccccc2S1(=O)=O,963
21,Cc1ccccc1CC(=O)NC1CCN(c2ccccc2)C1=O (centres undefined),811
22,O=C(NCCc1csc(-c2ccccc2)n1)c1ccccc1C(F)(F)F,883
23,Cc1ccc(Cn2c(CN3CCC(C(=O)N4CCCC4)CC3)cc3ccccc32)cc1,750

row,Structure (SMILES),RP-LC retention time [s]
1,CCOc1ccccc1N1CCN(Cc2cc(C)[nH]n2)CC1,612
2,CS(=O)(=O)N1CCCN(C(=O)C2(c3ccccc3)CC2)c2ccccc21,761
3,COc1nc2ccccc2nc1N1CCCC(C(=O)NC2CCCC(C)C2C)C1 (centres undefined),1160
4,CCc1noc(-c2cc(=O)n(CC(=O)NCc3ccccc3F)c3ccccc23)n1,890
5,Cc1ccccc1C(=O)N1CCC2(C1)C(=O)N(C)c1ccccc12 (centres undefined),767
6,c1ccc(CN2CCC3(CCCc4ccccc43)CC2)cc1,834
7,Cc1ccc(-n2nc(C)c3sc(N4CCCC(C(=O)NCc5ccc(N(C)C)cc5)C4)nc32)cc1 (centres undefined),867
8,CCOc1ccc(CNC2CCN(c3ccc(C(=O)NC4CC4)cn3)C2)cc1 (centres undefined),578
9,O=S(=O)(c1cccc(Cl)c1)N1CC(F)(F)C[C@H]1CN1CCc2ccccc2C1,788
10,Cn1nc(C(=O)N2CCCC2)c2c1CCN(C(=O)CCC(=O)NCCN1CCCCCC1)C2,586
11,CCCCN(CCCC)c1nc(-c2ccncc2)nc2ccccc12,992
12,CCCN(C(C)=O)c1nc(-c2ccc(C)cc2)cs1,1190
13,O=S(=O)(c1cccn2c(SCc3cccc(Br)c3)nnc12)N1CCCCC1,930
14,Cn1c(C(=O)N2CCCC(C(=O)NCCc3ccc(S(N)(=O)=O)cc3)C2)cc2sccc21 (centres undefined),693
15,Cc1ccc(-c2csc(-c3cccn3CC(=O)NCc3ccco3)n2)cc1,1100
16,COc1ccc(OC)c(CNC(=O)CN2C(=O)CSc3cccn3-c3ccccc32)c1,914
17,COC(=O)C1=CN(c2cc(C)cc(C)c2)c2ccccc2S1(=O)=O,943
18,Cc1nc(CCNC(=O)C2CCN(S(=O)(=O)c3ccc(Cl)cc3)CC2)cs1,755
19,CCOc1ccc(C(O)CN2CCN(c3ccccc3)CC2)cc1 (centres undefined),653
20,CCC(=O)Nc1ccc(CCc2nc3ccc(C(=O)NCCC4=CCCCC4)cc3[nH]2)cc1,696
21,CN1C(=O)c2cc(C(=O)NCc3ccc(F)cc3)nn2CC1(C)C(=O)NCc1ccc(F)cc1 (centres undefined),760
22,O=C(CC1CC1)N1CC(F)(F)C[C@H]1c1nnc(-c2ccccc2)o1,804
23,CCSc1nc2ccc(NS(=O)(=O)c3ccc(F)cc3Cl)cc2s1,1110

row,Structure (SMILES),RP-LC retention time [s]
1,CSc1ccccc1NC(=O)C(C)Cn1nc(-c2ccco2)ccc1=O (centres undefined),707
2,CN(C)C[C@@H]1CN(c2ncccn2)C[C@H]1NS(=O)(=O)c1ccc(C#N)cc1,589
3,CCSc1nc2ccc(NS(=O)(=O)c3ccc(Cl)cc3)cc2s1,1070
4,CC(=O)N1CCC2(CC1)CC(N(C(=O)NC(C)C)C1CC1)CCO2 (centres undefined),653
5,O=C1CS(=O)C2(CCN(S(=O)(=O)Cc3ccccc3)CC2)N1CC1CC1 (centres undefined),713
6,O=C(NCCc1cccs1)c1c(O)c2cccnc2n(-c2cccc(F)c2)c1=O,1180
7,COc1ccccc1CC(=O)N1CCCC1c1c(C)noc1C (centres undefined),753
8,CCN1C=C(C(=O)OCc2cc(C)ccc2C)C(C)=NS1(=O)=O,1060
9,CN1C(=O)CCC2(CNC(=O)Nc3ccccc3F)CCCC=C12 (centres undefined),797
10,Cc1ccc(-c2noc(Cn3c(=O)n(-c4ccccc4C)c(=O)c4sccc43)n2)cc1C,1110
11,COc1ccccc1OCC(=O)NCCN1CCN(c2ccccc2OC)CC1,574
12,CCn1ccc(C(=O)N2CCC3(CC2)C(=O)N(C)c2ccccc23)n1,725
13,CC1(C(=O)NCc2ccc(F)cc2)CCCN(C(=O)Nc2ccc3c(c2)OCCO3)C1 (centres undefined),792
14,Cc1cc(-c2nnc(-c3ccc(F)cc3)o2)c(C)n1CC(=O)NCc1ccc(F)cc1F,939
15,Cc1nc(-c2ccccc2)nn1C1CCN(S(=O)(=O)c2ccccc2C(F)(F)F)C1 (centres undefined),897
16,COc1ccccc1-c1csc(-c2nnn(-c3ccc(F)cc3)c2N)n1,1070
17,COC(=O)N1CCN(CCNC(=O)C2(c3ccc(Cl)cc3)CCCC2)CC1,592
18,CCOc1ccc(-c2noc(Cn3c(=O)n(-c4ccc(C)cc4)c(=O)c4sccc43)n2)cc1OC,987
19,CN(CCNC(=O)c1ccc(-c2ccnc(N3CCCC3)n2)cc1)C1CCCCC1,611
20,COc1ccc(-c2noc(Cc3nnc(-c4ccc(Cl)cc4)o3)n2)cc1F,1060
21,O=C1CCN(S(=O)(=O)c2ccccc2)CCCN(C(=O)C2(c3ccccc3)CC2)CCN1,758
22,Cc1ccn2c(Nc3ccccc3C)c(-c3cc(Br)ccc3F)nc2c1,814
23,COc1ccccc1-c1noc(C2CCCN2C(=O)Cc2ccc(F)cc2)n1 (centres undefined),866

row,Structure (SMILES),RP-LC retention time [s]
1,CCc1cc(=O)n(CC(=O)Nc2ccccc2CC)c(N)n1,610
2,COCCCNC(=O)C1CCC(=O)N(c2ccc(OC)cc2)C1c1ccc(OC)c(OC)c1 (centres undefined),612
3,COCCn1ccc2nc(C)c(C(=O)NCc3cccs3)cc2c1=O,656
4,CN(C)c1cc2c(cc1NC(=O)Cc1ccccc1Cl)n(C)c(=O)c(=O)n2C,754
5,CC(=O)Nc1ccc(S(=O)(=O)N2CCc3c(c(-c4nnc(-c5ccccc5)o4)nn3C)C2)cc1,775
6,CCn1cnc2c(-c3ccccc3)cn(CC(=O)NCc3ccco3)c2c1=O,796
7,Cc1ccc(CNC(=O)C2CCCN(c3nc4ncccc4n4cccc34)C2)cc1 (centres undefined),640
8,O=C(NCCn1ncccc1=O)c1csc(-c2ccccc2)n1,648
9,CCOC(=O)C1CCN(C(=O)Cc2csc(NC(=O)c3ccco3)n2)CC1,649
10,Cc1cc(S(=O)(=O)N2CCC(n3cnnc3C)CC2)ccc1Cl,739
11,Cc1ccc(Cn2nc(-c3nc(C(C)(C)C)no3)ccc2=O)cc1,1130
12,O=C(NCc1cccs1)c1coc(NC(=O)c2ccco2)n1,632
13,O=C(CCC(=O)OCC(=O)c1ccccc1)Nc1ccc2ccccc2c1,891
14,Cc1ccc(C2CC(=O)N(c3ccc(F)c(F)c3)C(=O)C2)cc1,997
15,CC(CCc1ccccc1)NC(=O)Cc1csc2nc(-c3ccccc3)cn12 (centres undefined),850
16,Cc1ccc(Cn2c(N3CCCC(C(=O)Nc4cc(C)cc(C)c4)C3)nc3ccsc3c2=O)cc1 (centres undefined),1160
17,Cc1cc(C)c(NC(=O)Cn2nc3c(N4CCCCCC4)nccn3c2=O)c(C)c1,757
18,COc1ccccc1-n1nnc(C(=O)Nc2nc(C)cs2)c1-c1ccccn1,758
19,CC(C)CNC(=O)NCCC1CCN(S(=O)(=O)c2ccc(F)cc2)CC1,824
20,O=C1Nc2cc(C(=O)N3CCN(Cc4ccc5c(c4)OCO5)CC3)ccc2N2CCCCC12 (centres undefined),624
